From US12630501B2, “Anti-fibrotic compounds and use thereof” (HADASIT MEDICAL RESEARCH SERVICES AND DEVELOPMENT LTD., priority 2019, dated 2026)

Experiments:
[1] = system: BLM-treated C57BL/6 WT mice; assay: Bleomycin-induced lung fibrosis in mice, CMH by oropharyngeal aspiration; format: in vivo, mouse
Excerpt: Animals C57BL/6 and mutant mice, male, 11-12 weeks old (Harlan Sprague Dawley, Indianapolis, IN, USA) were used. SIRT1 dominant-negative mice carry a point mutation (H355Y), Sirt1^tm2.1Mcby (Sirt1^y/y, RBRC05324, RIKEN Bio Resource Center, Japan) that ablates SIRT1 enzymatic activity, described in Gabay et al., Arthritis Rheum. 65: 159-166, 2013; and Seifert et al., FASEB J. 26: 555-566, 2012. Mice were maintained under specific pathogen-free conditions with adherence to institutional guidelines for the care and use of laboratory animals. Chimeric mice with SIRT1-deficient mice and WT hematopoietic cells were generated as described in Golan-Gerstl et al., Am. J. Respir Cell Mol. Biol. 36: 270-275, 2007.
Oropharyngeal aspiration (OA) and induction of lung fibrosis in mice Oropharyngeal aspiration of BLM (OA-BLM) was performed as detailed in Golan-Gerstl et al., Am. J. Respir. Cell Mol. Biol. 36: 270-275, 2007. Lung fibrosis was assessed via semi-quantitative morphological index (Wallach-Dayan et al., PNAS USA 104: 20460-20465, 2007). Lung collagen was measured using a Sircol Collagen Assay kit (Biocolor, Belfast, Northern Ireland), and standard protocol of trichrome staining. Isolation of mouse lung myofibroblasts Myofibroblast isolation and culture was performed as described in Golan-Gerstl et al., Am. J. Respir. Cell Mol. Biol. 36: 270-275, 2007; and Wallach-Dayan et al., PNAS USA 104: 20460-20465, 2007.
Immunohistochemistry (IHC) staining of lung tissue sections was performed as described in Golan-Gerstl et al., Am. J. Respir Cell Mol. Biol. 36: 270-275, 2007; and Wallach-Dayan et al., PNAS USA 104: 20460-20465, 2007.
CMH (30 μM) or control vehicle 4% DMSO were administered into WT mice by a second OA on day 6 of OA-BLM (0.05 mU), or control-saline (FIG. 6A). Similar to SIRT1^y/y mice, BLM-treated mice and control saline-treated mice (FIG. 6B) that were exposed to CMH vs. vehicle alone, had low SIRT1 and FLIP expression in lung sections. Myofibroblasts isolated from lungs of BLM-treated mice had decreased Ku70 binding to SIRT1 from 1.2 to 0.6 (FIG. 6C), increased Ku70 acetylation from an OD of 0.1 to 0.91 (FIG. 6D), and decreased Ku70/FLIP complex from an OD of 2.43 to 1.55 (FIG. 6E). Compared to vehicle, CMH-treated mice reduced H&E and collagen-trichrome staining (FIG. 6F, upper and lower panels, respectively), SMI grade (average SMI from 2 to 1.1, FIG. 6G), and collagen in Sircol assay (from 200 μg to only 50 μg, FIG. 6H). Thus, In vivo inhibition of SIRT1 activity, FLIP expression, and lung fibrosis were detected in CMH-BLM-treated mice and attenuation of deacetylation activity on Ku70, a decrease in Ku70/FLIP complex, and FLIP expression levels were detected in myofibroblasts isolated from lungs of CMH-BLM-treated mice. SIRT1-mediated Ku70-deacetylation may therefore stabilize FLIP via Ku70/FLIP complex in lung myofibroblasts promoting fibrosis, which can be inhibited by CMH.

HDAC7 = biological target: T1, HDAC7 (Homo sapiens, UniProt Q8WUI4); conditions: prostate cancer cells; cited from earlier work
T1 sequence (Q8WUI4 1-952): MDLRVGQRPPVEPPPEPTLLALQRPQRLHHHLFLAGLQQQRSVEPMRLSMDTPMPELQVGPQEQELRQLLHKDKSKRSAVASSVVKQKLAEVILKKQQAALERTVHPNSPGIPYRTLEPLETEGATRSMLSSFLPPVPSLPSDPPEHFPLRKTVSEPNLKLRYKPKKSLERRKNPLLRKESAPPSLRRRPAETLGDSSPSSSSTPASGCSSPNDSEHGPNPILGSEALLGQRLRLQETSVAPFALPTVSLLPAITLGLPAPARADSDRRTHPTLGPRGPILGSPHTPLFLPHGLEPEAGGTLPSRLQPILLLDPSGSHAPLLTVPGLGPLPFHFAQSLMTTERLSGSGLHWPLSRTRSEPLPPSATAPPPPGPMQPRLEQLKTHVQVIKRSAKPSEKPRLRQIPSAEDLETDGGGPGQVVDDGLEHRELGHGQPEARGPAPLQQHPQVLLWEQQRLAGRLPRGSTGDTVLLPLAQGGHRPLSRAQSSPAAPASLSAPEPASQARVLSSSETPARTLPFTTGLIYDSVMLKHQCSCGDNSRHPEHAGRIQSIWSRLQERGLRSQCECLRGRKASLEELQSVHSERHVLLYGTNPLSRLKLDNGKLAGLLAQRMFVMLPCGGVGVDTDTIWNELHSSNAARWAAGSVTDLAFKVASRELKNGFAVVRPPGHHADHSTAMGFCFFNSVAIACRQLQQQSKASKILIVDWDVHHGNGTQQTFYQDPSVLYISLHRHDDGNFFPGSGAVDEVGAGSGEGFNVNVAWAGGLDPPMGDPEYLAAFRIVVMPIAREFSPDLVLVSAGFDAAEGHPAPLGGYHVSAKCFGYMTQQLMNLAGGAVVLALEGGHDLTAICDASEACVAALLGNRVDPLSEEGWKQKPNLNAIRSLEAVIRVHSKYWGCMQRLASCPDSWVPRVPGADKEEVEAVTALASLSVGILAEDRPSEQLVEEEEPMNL

HDACS = HDACS (Homo sapiens, UniProt Q9UQL6); conditions: prostate cancer cells; cited from earlier work
HDACS, sequence (Q9UQL6 whole entry): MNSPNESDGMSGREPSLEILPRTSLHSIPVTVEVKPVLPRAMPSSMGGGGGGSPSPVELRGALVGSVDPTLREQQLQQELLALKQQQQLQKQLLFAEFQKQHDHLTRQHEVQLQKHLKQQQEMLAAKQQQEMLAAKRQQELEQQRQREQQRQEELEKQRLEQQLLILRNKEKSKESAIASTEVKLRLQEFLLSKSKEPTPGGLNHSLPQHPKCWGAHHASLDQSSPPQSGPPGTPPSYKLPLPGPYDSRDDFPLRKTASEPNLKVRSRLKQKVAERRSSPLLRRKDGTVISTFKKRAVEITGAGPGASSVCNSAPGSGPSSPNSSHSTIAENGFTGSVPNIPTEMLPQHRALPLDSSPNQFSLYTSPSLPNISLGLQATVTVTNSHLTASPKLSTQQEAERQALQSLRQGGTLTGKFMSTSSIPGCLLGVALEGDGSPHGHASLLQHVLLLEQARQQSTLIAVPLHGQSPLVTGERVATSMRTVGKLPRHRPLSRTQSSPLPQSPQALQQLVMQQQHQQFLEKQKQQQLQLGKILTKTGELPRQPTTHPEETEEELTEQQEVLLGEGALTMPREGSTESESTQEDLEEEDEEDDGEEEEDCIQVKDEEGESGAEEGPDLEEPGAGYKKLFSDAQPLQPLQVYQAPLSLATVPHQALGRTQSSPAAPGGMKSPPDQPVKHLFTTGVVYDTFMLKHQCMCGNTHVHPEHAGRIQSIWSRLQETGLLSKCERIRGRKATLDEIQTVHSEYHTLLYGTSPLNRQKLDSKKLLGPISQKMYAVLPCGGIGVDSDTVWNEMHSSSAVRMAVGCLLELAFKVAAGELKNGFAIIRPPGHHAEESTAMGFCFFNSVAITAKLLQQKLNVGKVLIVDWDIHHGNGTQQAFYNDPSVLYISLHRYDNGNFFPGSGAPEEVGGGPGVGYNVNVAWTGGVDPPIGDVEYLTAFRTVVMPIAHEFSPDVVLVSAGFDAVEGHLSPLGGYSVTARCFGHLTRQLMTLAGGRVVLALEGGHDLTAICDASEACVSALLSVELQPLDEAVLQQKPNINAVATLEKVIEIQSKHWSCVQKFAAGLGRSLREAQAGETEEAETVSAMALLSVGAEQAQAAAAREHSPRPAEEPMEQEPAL

[2] = CMH 30 μM by OA on day 6 of OA-BLM, vs. vehicle

Cc1cc(Cl)ccc1OCCCC(=O)NO [CMH, 4-(4-chloro-2-methylphenoxy)-N-hydroxybutanamide]
H&E and collagen-trichrome staining of lung tissue sections ([1]; CMH 30 μM OA day 6, day 14 post BLM, compared to vehicle): reduced
Collagen in Sircol assay ([1]; CMH 30 μM OA day 6, day 14 post BLM, vehicle 200 μg): 50 µg
Average SMI grade (semi-quantitative morphological index) ([1]; CMH 30 μM OA day 6, day 14 post BLM, vehicle 2): 1.1
FLIP expression in lung sections (IHC) [1, 2]: low
SIRT1 expression in lung sections (IHC) [1, 2]: low
Inhibition of HDAC7 (HDAC7): not inhibited
Inhibition of HDACS (HDACS): not inhibited
